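In this assay, cells in 96-well plates receive the compound at five concentrations for 48 hours. Endpoints are linearly interpolated between the surrounding concentrations. GI50: concentration for 50% inhibition of growth. At the TGI there is no net growth.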

Among the data in PubChem BioAssay (NCI) are TGI and GI50 values, retold here.

What all share (assay): inhibition of tumour cell growth, NCI panel, 48 h
Assay [1] deals with SK-MEL-2 melanoma.
For assay [2], the system named is TK-10 renal.
The subject of assay [3] is SN12C renal.
Assay [4] concerns SK-MEL-28 melanoma.
The test system of assay [5] is SW-620 colon.
Assay [6] concerns NCI-H522 lung.
Assay [7] deals with U251 CNS.
The test system of assay [8] is RXF 393 renal.
Assay [9] deals with CCRF-CEM leukemia.
Assay [10] concerns RPMI-8226 leukemia.

On to `CC(C(=O)c1ccccc1)C1(O)C(=O)Nc2ccccc21` (centres undefined), for which the TGI in assay [1], in assay [2], in assay [3], in assay [4], in assay [5] and in assay [6] was above 100 µM in each case. The TGI in assay [7], in assay [8], in assay [9] and in assay [10] was above 100 µM throughout.
Turning to `CC1=C(C(=O)NCC(C)O)CC(C(=O)NCC(C)O)=C(C)N1` (centres undefined), the TGI in [1], in assay [2], in assay [3], in assay [4], in assay [5] and in assay [6] was above 100 µM each time. The TGI in assay [7], in assay [8], in assay [9] and in assay [10] was above 100 µM in each case.
Regarding `CN(C)CCNC1=CC(=O)c2c(O)ccc(O)c2C1=O`, the TGI in [1] came to 25.3 µM; in assay [2], 28 µM; in assay [3] it was 21.5 µM; in assay [4], 26.3 µM; in assay [5], 10.1 µM; in assay [6], 9.85 µM. The TGI was 24.4 µM in [7], 31.4 µM in assay [8], 11.3 µM in assay [9] and above 68.2 µM in assay [10].
As to `CCC(O)(c1ccc(OC)cc1)C(c1ccc(OCc2ccccc2)cc1)c1ccc(OCc2ccccc2)cc1` (centres undefined), the TGI in assay [1], in [2], in [3], in assay [4], in assay [5] and in assay [6] was above 100 µM in each case. Besides, the TGI in [7], in assay [8], in assay [9] and in [10] was above 100 µM throughout.
For `C=C1SC(=Nc2ccccc2Cl)N(C(=O)c2sc3ccccc3c2Cl)C1(C)C`, the GI50 in assay [1] is 8830 nM; in assay [2], 5.57 µM; in assay [3], 12.6 µM; in [4] it was 37200 nM; in assay [5], 4680 nM; in [6], 3030 nM. Besides, the GI50 was 4120 nM in assay [7], 16600 nM in assay [8], 3.93 µM in assay [9] and 2440 nM in assay [10]. The TGI was 31.9 µM in [1]; 37.1 µM in [2]; above 100 µM in assay [3]; above 100 µM in assay [4]; above 100 µM in assay [5]; 26.8 µM in assay [6]. The TGI in assay [7] is above 100 µM; in [8] it was above 86.5 µM; in [9], above 25.3 µM.
`CCC(c1ccc(OC)cc1)C(CC)c1ccc(O)c(CN2CCCC2)c1` (centres undefined): the GI50 in assay [1] is 1950 nM; in assay [2] it was 2.35 µM; in [3] it was 5.61 µM; in assay [4], 2040 nM; in assay [5], 2990 nM; in assay [6] it was 1660 nM. Further, the GI50 in assay [7] is 2250 nM; in assay [8], 2810 nM; in assay [9] it was 3.56 µM; in assay [10], 2240 nM. Moreover, the TGI was 4.03 µM in assay [1]; 10.8 µM in assay [2]; 20.2 µM in [3]; 4.57 µM in [4]; 9.07 µM in assay [5]; 3.79 µM in assay [6]. Besides, the TGI in assay [7] is 5.67 µM; in [8], 7.55 µM; in assay [9], 13.5 µM; in [10], 6.28 µM.
For `NNC(=O)CCC(=O)Nc1ccc(Cl)cc1Cl`, the TGI in assay [1], in assay [2], in [3], in assay [4], in [5] and in assay [6] was above 100 µM each time. Moreover, the TGI in assay [7], in [8], in [9] and in assay [10] was above 100 µM each time.
As for `O=C(Nc1ccc(Cl)cc1)c1cc2cc(F)ccc2cc1O`, the GI50 in [1] is 672 nM; in assay [2] it was 2.39 µM; in assay [3] it was 1.78 µM; in assay [4] it was 1750 nM; in [5] it was 2490 nM; in assay [6], 359 nM. The GI50 in assay [7] is 1100 nM; in [8], 3000 nM; in [9], 3.35 µM; in [10] it was 591 nM. For the same molecule, the TGI in [1] was 2.74 µM; in [2] it was 58.9 µM; in assay [3], above 100 µM; in [4], above 100 µM; in assay [5] it was above 100 µM; in [6], 3.03 µM. Further, the TGI in assay [7] was found to be 6.54 µM; in assay [8] it was 16.1 µM; in assay [9], 15.6 µM; in [10] it was 7.16 µM.
Take `O=S(=O)(NCCCNc1cc(-c2cn(-c3ccccc3)nc2-c2cccc(O)c2)ccn1)c1cccc2ccccc12`: the GI50 in assay [1] was 2450 nM; in assay [2] it was 6.11 µM; in [3] it was 4.8 µM; in [4], 2370 nM; in [5], 2750 nM; in assay [6], 2320 nM. In addition, the GI50 in assay [7] is 1780 nM; in assay [8], 1180 nM; in assay [9], 3.12 µM; in [10] it was 1850 nM. Besides, the TGI in assay [1] is 6.25 µM; in assay [2] it was 44.9 µM; in assay [3], above 100 µM; in assay [4], 7.33 µM; in assay [5] it was 10 µM; in assay [6], 5.66 µM. Further, the TGI was 13.1 µM in assay [7], 5.04 µM in assay [8], above 100 µM in assay [9] and 7.89 µM in assay [10].
Regarding `CC(C)NC(=O)OCc1c(COC(=O)NC(C)C)c(-c2ccc[n+](COC(=O)C3CC3)c2)n2c1CCC2`, the TGI was above 100 µM in [1]; above 100 µM in [2]; above 100 µM in [3]; above 100 µM in assay [4]; above 100 µM in assay [5]; 63.1 µM in assay [6]. Moreover, the TGI in assay [7], in assay [8], in [9] and in [10] was above 100 µM each time.
